One series has as its system HCT116. The series is described as follows: cells. The following applies: for IC50: read-out: IC50 HCT116, exposure time 72 h, n = 3, 95% CI given; for activity factor IC50(1)/IC50(3a–4d), HCT116: vs corresponding amine (R)-1 or (S)-1, 72 h. The procedure, abridged: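 Cells seeded at 10^4 per well overnight, then exposed to compounds (0.1% v/v DMSO final) for 70 h. Viability by neutral red uptake: 1 mM dye for 2 h, acid-ethanol extraction, A540. IC50 and IC90 from five-parameter logistic regression.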

The subject of the next series is SW620 cells. In words: ROS generation, dihydrorhodamine 123 oxidation assay. The series is classed as cell-based, human. The following applies: SW620, 1 μM compound, 4 h, DHR123 with 10 μM verapamil; vs control or (R)- and (S)-1. The text has this:
Metal complexes often induce reactive oxygen species (ROS) generation in cells,[51] which may increase their cytotoxic activity compared to purely organic molecules. To study the impact of the synthesized compounds on ROS production, we have measured the ROS generation in SW620 cells by the dihydrorhodamine 123 (DHR123) oxidation assay (Figure 9). However, there is no correlation between the antiproliferative potential and the ability of a compound to generate ROS.
Dihydrorhodamine 123 oxidation was used as an indicator of intracellular ROS production. For this purpose, SW620 cells were seeded in 6-well plates at a density of 10^5 cells per well. The cells were left overnight (time needed for them to attach to the surface). Then, 1 μM tested compounds were added along with 1 μM DHR123. Additionally, since DHR123 is a substrate of ABCB1 (which may interfere in this assay), 10 μM verapamil, an inhibitor of this protein, was added. The cells were cultured for an additional 4 h at 37 °C, and then the cells were harvested by trypsinization, resuspended in a complete medium, and analyzed using a LSRII flow cytometer (Becton Dickinson) in a FITC channel (530/30 nm). The results are presented as a percentage of control (median fluorescence in the presence of DMSO).

Series [1] in a line: Stability study in the presence of L-histidine (UV-vis, HPLC-MS). The series is classed as physicochemical. The settings on record: 20 μM complex, 0.2 mM L-histidine in water, 0.5 vol % DMSO, followed over 2 h. The text has this: For biological studies, compounds are commonly administered as dimethyl sulfoxide (DMSO) solution to cells cultured in a specific medium such as Dulbecco’s modified Eagle’s medium (DMEM). DMEM consists of numerous organic compounds which may act as ligands for organometallics. Therefore, it is important to know how the compounds behave in such conditions. The two most prominent components of DMEM which may coordinate to half-sandwich complexes are L-cysteine and L-histidine. Both of those amino acids are present in DMEM at 0.2 mM concentration, so we studied how the complexes interact with them using UV–vis spectroscopy and HPLC-MS analysis. The DMSO solutions of complexes were added to the aqueous solution of L-cysteine or L-histidine to achieve a complex concentration of 20 μM while keeping the DMSO concentration at 0.5 vol %. […] HPLC-MS analysis confirmed the formation of an additional peak at τ = 0.95 min with m/z 714 assigned to [M-Cl-PF6 + HCOOH]^+; additionally, the intensity of peaks corresponding to 3c is lower (Figure S26). […] The intensity of absorbance peaks at λ = 287 and λ = 372 nm in the presence of cysteine is decreasing, while the intensity of peaks at λ = 304 and λ = 318 nm is almost intact.
The stability of 3a–d was studied in the presence of L-cysteine or L-histidine. 3a–d were dissolved in DMSO and added to 0.2 mM aqueous solution of L-cysteine or L-histidine to achieve the complex concentration of 20 μM while keeping the DMSO concentration at 0.5 vol %. UV–vis spectra were recorded over 2 h with 10 min intervals.

Consider four compounds from article PMC11044151, “Development of Half-Sandwich Ru, Os, Rh, and Ir Complexes Bearing the Pyridine-2-ylmethanimine Bidentate Ligand Derived from 7-Chloroquinazolin-4(3H)-one with Enhanced Antiproliferative Activity” (ACS Omega, 2024).

What is called IC50 is the point on the concentration scale where inhibition reaches its midpoint.

Turning to `CC(C)[C@@H](N=Cc1ccccn1)c1nc2cc(Cl)ccc2c(=O)n1Cc1ccccc1.Cc1ccc(C(C)C)cc1.F[P-](F)(F)(F)(F)F.[Cl-].[Ru+2]` [Compound 3a, [(cym)Ru((R)-2)Cl]PF6], in the series on HCT116, the IC50 was 2880 nM and the “activity factor IC50(1)/IC50(3a–4d), HCT116” value is on record as “(0.120)”. In addition, the “ROS generation (in words)” value in the series on SW620 cells is “increase the level of ROS”. The “reaction with L-histidine (stability)” value in series [1] is listed as “neither ruthenium 3a nor the osmium complex 3b reacts with those amino acids within 2 h”.
In the case of `CC(C)[C@@H](N=Cc1ccccn1)c1nc2cc(Cl)ccc2c(=O)n1Cc1ccccc1.Cc1c(C)c(C)[c-](C)c1C.F[P-](F)(F)(F)(F)F.[Cl-].[Rh+3]` [Compound 3c, [(Cp*)Rh((R)-2)Cl]PF6], in the series with HCT116, the IC50 amounted to 173 nM and the “activity factor IC50(1)/IC50(3a–4d), HCT116” value is given as “(2.00)”. In addition, in series [1], the “reaction with L-histidine (stability)” value is “A similar effect is observed in the case of L-histidine”.
The corresponding values for `CC(C)[C@@H](N=Cc1ccccn1)c1nc2cc(Cl)ccc2c(=O)n1Cc1ccccc1.Cc1ccc(C(C)C)cc1.F[P-](F)(F)(F)(F)F.[Cl-].[Os+2]` [Compound 3b, [(cym)Os((R)-2)Cl]PF6] are 424 nM, “(0.816)” and “neither ruthenium 3a nor the osmium complex 3b reacts with those amino acids within 2 h”.
Turning to `CC(C)[C@@H](N=Cc1ccccn1)c1nc2cc(Cl)ccc2c(=O)n1Cc1ccccc1.Cc1c(C)c(C)[c-](C)c1C.F[P-](F)(F)(F)(F)F.[Cl-].[Ir+3]` [Compound 3d, [(Cp*)Ir((R)-2)Cl]PF6], in the series on HCT116, the IC50 was found to be 476 nM and the “activity factor IC50(1)/IC50(3a–4d), HCT116” value is reported as “(0.727)”. For the same compound, the “reaction with L-histidine (stability)” value in series [1] was “reacts with both L-cysteine and L-histidine (Figure 6) in 40 min”.
